Patent publication US20180081270A1, “RADIATION-SENSITIVE COMPOSITION, AMORPHOUS FILM, AND METHOD FOR FORMING RESIST PATTERN” (Mitsubishi Gas Chemical Company, Inc., priority 2015, published 2018)

Columns and labels:
[1] = 10% thermal reduction temperature by thermogravimetry (TG); assay type: physicochemical; conditions: 10° C./min to 500° C., nitrogen gas stream
Procedure: “EXSTAR 6000 DSC apparatus” manufactured by SII NanoTechnology Inc. was used. About 5 mg of a sample was placed in an unsealed container made of aluminum, and the temperature was raised to 500° C. at a temperature increase rate of 10° C./min in a nitrogen gas (30 mL/min) stream. In this operation, 10% thermal reduction temperature was measured.

[2] = Solubility in PGME and PGMEA at 23° C.; assay type: physicochemical; conditions: for solubility in PGME and PGMEA (dissolution amount): 1-methoxy-2-propanol (PGME) and propylene glycol monomethyl ether acetate (PGMEA)
Procedure: The dissolution amount of the compound in 1-methoxy-2-propanol (PGME) and propylene glycol monomethyl ether acetate (PGMEA) was measured at 23° C., and the results were evaluated according to the following criteria.
Evaluation A: 20% by mass or more Evaluation B: 10% by mass or more and less than 20% by mass Evaluation C: less than 10% by mass

SMILES	10% thermal reduction temperature [1] [°C]	solubility in PGME and PGMEA (dissolution amount) [2] [% by mass]	solubility in PGME and PGMEA (evaluation) [2]
Oc1ccc(-c2ccc(O)c(C(c3cccc(I)c3)c3cc(-c4ccc(O)cc4)ccc3O)c2)cc1 [BiF-I-3]	≥ 300	≥ 30	A (Evaluation A: 20% by mass or more)
COc1cc(C(c2cc(-c3ccc(O)cc3)ccc2O)c2cc(-c3ccc(O)cc3)ccc2O)cc(O)c1I [BiF-I-2]	≥ 400	≥ 30	A (Evaluation A: 20% by mass or more)
Oc1ccc(-c2ccc(O)c(C(c3ccc(I)cc3)c3cc(-c4ccc(O)cc4)ccc3O)c2)cc1 [BiF-I-1]	≥ 400	≥ 30	A (Evaluation A: 20% by mass or more)
